{"source": "patent US20250375405A1", "about": "“N-LACTOYL-PHENYLALANINE FOR PREVENTING AND/OR TREATING ISCHEMIC HEART DISEASE AND METHOD FOR PREVENTING AND/OR TREATING ISCHEMIC HEART DISEASE” (Harbin Medical University, priority 2024, published 2025)", "key": {"[1]": {"tested_on": "human umbilical vein endothelial cells (HUVECs)", "assay": "Viability of hypoxic endothelial cells, CCK8 method", "type": "cell-based", "conditions": "Lac-Phe final concentrations 5, 10, 20 and 40 μM added 8 hours before hypoxia for 24 hours", "protocol": "The Lac-Phe was added to human umbilical vein endothelial cells (HUVECs), and 8 hours later, the HUVECs were placed in a hypoxia incubator and cultured under hypoxia for 24 hours (N2 95%, CO2 5%). The cell viability was evaluated by Cell Counting Kit-8 (CCK8) method for the normal control group (CTRL), hypoxia group (Hypoxia), and Lac-Phe-treated hypoxia group."}, "[2]": {"tested_on": "HUVECs", "assay": "Apoptosis of hypoxic endothelial cells by flow cytometry", "type": "cell-based, human", "conditions": "Lac-Phe final concentration 20 μM, added 8 hours before hypoxia for 24 hours", "protocol": "The Lac-Phe was added to HUVECs, and 8 hours later, the HUVECs were placed in a hypoxia incubator and cultured under hypoxia for 24 hours (N2 95%, CO2 5%). The cell apoptosis was determined by flow cytometry for the normal control group (CTRL), hypoxia group (Hypoxia), and Lac-Phe-treated hypoxia group."}, "[3]": {"tested_on": "Macrophages (RAW264.7)", "assay": "LPS-induced pro-inflammatory cytokine expression in macrophages, qRT-PCR", "type": "cell-based", "conditions": "LPS 100 ng/ml, Lac-Phe final concentration 20 μM, 24 hours", "protocol": "Macrophages (RAW264.7) were divided into the following 3 groups: a control group (CTRL, including 0.1% of DMSO), a lipopolysaccharide (LPS)-treated group (LPS-induced inflammatory responses in macrophages, a concentration: 100 ng/ml), and an LPS+Lac-Phe-treated group (Lac-Phe was added to LPS-induced macrophages at a final concentration of 20 μM). 24 hours after administration, RNA was extracted from cells in each group, and expression levels of pro-inflammatory cytokines IL-6 and TNFα in cells in each group were determined by quantitative real-time polymerase chain reaction (qRT-PCR). […] The above results also indicate that Lac-Phe has the anti-inflammatory potential."}, "[4]": {"tested_on": "Primary mouse cardiomyocytes", "assay": "Viability of hypoxic cardiomyocytes, CCK8 method", "type": "cell-based", "conditions": "Lac-Phe final concentrations 10 μM and 20 μM, hypoxia treatment for 24 hours", "protocol": "Primary mouse cardiomyocytes were divided into the following 4 groups: a control group (CTRL, including 0.1% of DMSO), a hypoxia group (a hypoxia treatment was performed for 24 hours), and hypoxia+Lac-Phe groups (cardiomyocytes were treated with Lac-Phe at final concentrations of 10 μM and 20 μM, respectively, and a hypoxia treatment was performed for 24 hours). The viability of cardiomyocytes was assayed by the CCK8 method.\nIt can be seen from the experimental results that Lac-Phe has the function of protecting cardiomyocytes against hypoxic injury."}, "[5]": {"tested_on": "HUVECs", "assay": "Endothelial cell tube formation assay", "type": "cell-based, human", "conditions": "Lac-Phe final concentration 20 μM, 24 hours after administration", "protocol": "HUVECs were divided into 2 groups: a control group (CTRL, including 0.1% of DMSO), and a Lac-Phe-treated group (final concentration: 20 μM). 24 hours after administration, the endothelial cell tube formation assay was performed.\nIt can be seen from the experimental results that Lac-Phe can increase the length of branches and the number of branch points formed from HUVECs (FIG. 5A-FIG. 5C). The above results also indicate that Lac-Phe has the potential to promote angiogenesis."}, "[6]": {"tested_on": "HUVECs", "assay": "Endothelial cell migration, wound closure assay", "type": "cell-based, human", "conditions": "Lac-Phe final concentration 10 μM, 12, 24 and 36 hours, versus control with 0.1% DMSO", "protocol": "HUVECs were divided into 2 groups: a control group (CTRL, including 0.1% of dimethylsulfoxide (DMSO)), and a Lac-Phe-treated group (final concentration: 10 μM). Cell monolayers were wounded in wells of a cell culture plate along the central axis of each well by an autoclaved white pipette tip, suspended cells in each well were washed with phosphate buffered saline (PBS), and a medium without fetal bovine serum was added to each well. The wounds were photographed with an inverted microscope, that is, the wound area was recorded at 0 hour. The cells were then further incubated in a cell culture incubator at 37° C. for 12 hours, 24 hours, and 36 hours. Then, the wounds were photographed under the inverted microscope, that is, the wound area was recorded. The ImageJ software was used to quantitatively assess the wound closure (FIG. 4A-FIG. 4B)."}, "[7]": {"tested_on": "experimental mice", "conditions": "supplementation of Lac-Phe, earlier studies; cited from earlier work"}, "[8]": {"tested_on": "mouse model of myocardial ischemia", "assay": "Mouse model of myocardial ischemia (left anterior descending coronary artery ligation), echocardiographic cardiac function", "type": "in vivo, mice", "conditions": "mouse MI model, Lac-Phe 20 mg/kg intraperitoneally, 1 week later, compared with the MI group", "protocol": "The surgery for left anterior descending coronary artery ligation was performed on mice to establish a mouse model of myocardial ischemia (MI group). […] Mice in the MI group were intraperitoneally injected with Lac-Phe (20 mg/kg), and then anesthetized 1 week later. An M-Mode echocardiogram was obtained under the guidance of B-Mode on a Doppler ultrasound Vevo2100 imaging system for small animals, and 10 or more cardiac cycles were recorded. Instrumental analysis software was used to measure various cardiac indicators of mice to assess the cardiac functions of the mice, including a left ventricular internal dimension systole (LVID), a left ventricular end systolic volume (LVESV), an inter-ventricular septum end-stolic thickness (IVS), an E/A ratio, an ejection fraction (EF), and a fraction shortening (FS)."}}}
{"smiles": "C[C@H](O)C(=O)N[C@@H](Cc1ccccc1)C(=O)O", "note": "[Lac-Phe, N-lactoyl-phenylalanine]", "values": [{"measurement": "cell viability of hypoxic HUVECs", "setting": "[1]", "result": "significantly improved"}, {"measurement": "number of apoptotic HUVECs", "setting": "[2]", "result": "significantly reduced"}, {"measurement": "expression level of pro-inflammatory cytokine IL-6", "setting": "[3]", "result": "significantly decreased"}, {"measurement": "expression level of pro-inflammatory cytokine TNFα", "setting": "[3]", "result": "significantly decreased"}, {"measurement": "viability of hypoxic cardiomyocytes", "setting": "[4]", "result": "significantly alleviate the hypoxic injury of cardiomyocytes"}, {"measurement": "length of branches formed from HUVECs", "setting": "[5]", "result": "increase"}, {"measurement": "number of branch points formed from HUVECs", "setting": "[5]", "result": "increase"}, {"measurement": "migration of endothelial cells (wound closure)", "setting": "[6]", "result": "promoting the migration of endothelial cells"}, {"measurement": "food intake of experimental mice", "setting": "[7]", "result": "effectively reduce the food intake"}, {"measurement": "cardiac function (LVID, LVESV, IVS, E/A ratio, EF, FS) by echocardiogram", "setting": "[8]", "result": "significant improvement effect on the cardiac function"}]}
